From ChEMBL document CHEMBL3885881, “DrugMatrix”

Species on record: Rattus norvegicus
Experiment: DrugMatrix - Regimen: Daily Repeat
Assay type: toxicity, organism-based, Sprague-Dawley
Set-up: regimen Daily Repeat, gender Male, age 6-8 weeks
Settings: in vivo, po, 0 mg/kg, route oral GAVAGE, dose level Control; for ABSOLUTE BASOPHIL / ABSOLUTE EOSINOPHIL / ABSOLUTE LYMPHOCYTE / ABSOLUTE MONOCYTE / ABSOLUTE SEGMENTED NEUTROPHIL / BASOPHIL / EOSINOPHIL / ERYTHROCYTE COUNT / HEMATOCRIT / HEMOGLOBIN / LEUKOCYTE COUNT / LYMPHOCYTE / MEAN CORPUSCULAR HEMOGLOBIN / MEAN CORPUSCULAR HEMOGLOBIN CONCENTRATION / MEAN CORPUSCULAR VOLUME / MONOCYTE / NEUTROPHIL / NUCLEATED RED BLOOD CELLS / PLATELET COUNT: tissue Blood; for ALANINE AMINOTRANSFERASE / ALBUMIN / ALKALINE PHOSPHATASE / ASPARTATE AMINOTRANSFERASE / BLOOD UREA NITROGEN / CARBON DIOXIDE / CHLORIDE / CHOLESTEROL / CREATINE PHOSPHOKINASE / CREATININE / GLUCOSE / LACTATE DEHYDROGENASE / LIPASE / PHOSPHORUS / POTASSIUM / SODIUM / TOTAL BILIRUBIN / TOTAL PROTEIN / URIC ACID: tissue Plasma
[1] = 72 h, time 3 day, vehicle 100 % WATER

Cn1cnc([N+](=O)[O-])c1Sc1ncnc2nc[nH]c12 [AZATHIOPRINE]
ABSOLUTE BASOPHIL (72 h, time 3 day, […]): 0 CELLS/uL
ABSOLUTE EOSINOPHIL (72 h, time 3 day, […]): 0 CELLS/uL
ABSOLUTE LYMPHOCYTE (72 h, time 3 day, […]): 7601 CELLS/uL
ABSOLUTE MONOCYTE (72 h, time 3 day, […]): 354.33 CELLS/uL
ABSOLUTE SEGMENTED NEUTROPHIL (72 h, time 3 day, […]): 744.67 CELLS/uL
BASOPHIL (72 h, time 3 day, […]): 0%
EOSINOPHIL (72 h, time 3 day, […]): 0%
ERYTHROCYTE COUNT (72 h, time 3 day, […]): 5.03 x10E6/uL
HEMATOCRIT (72 h, time 3 day, […]): 33.7%
HEMOGLOBIN (72 h, time 3 day, […]): 13.43 G/DL
LEUKOCYTE COUNT (72 h, time 3 day, […]): 8.7 x10E3/uL
LYMPHOCYTE (72 h, time 3 day, […]): 86.33%
MEAN CORPUSCULAR HEMOGLOBIN (72 h, time 3 day, […]): 26.7 pg
MEAN CORPUSCULAR HEMOGLOBIN CONCENTRATION (72 h, time 3 day, […]): 39.83 G/DL
MEAN CORPUSCULAR VOLUME (72 h, time 3 day, […]): 67 fL
MONOCYTE (72 h, time 3 day, […]): 4.67%
NEUTROPHIL (72 h, time 3 day, […]): 9%
NUCLEATED RED BLOOD CELLS (72 h, time 3 day, […]): 0 /100WBC
PLATELET COUNT (72 h, time 3 day, […]): 1151 x10E3/uL
ABSOLUTE EOSINOPHIL [1]: 91.5 CELLS/uL
ABSOLUTE LYMPHOCYTE [1]: 14108.83 CELLS/uL
ABSOLUTE MONOCYTE [1]: 81 CELLS/uL
ABSOLUTE SEGMENTED NEUTROPHIL [1]: 818.67 CELLS/uL
EOSINOPHIL [1]: 0.67%
ERYTHROCYTE COUNT [1]: 5.56 x10E6/uL
HEMATOCRIT [1]: 34.5%
HEMOGLOBIN [1]: 13.45 G/DL
LEUKOCYTE COUNT [1]: 15.1 x10E3/uL
LYMPHOCYTE [1]: 93%
MEAN CORPUSCULAR HEMOGLOBIN [1]: 24.2 pg
MEAN CORPUSCULAR HEMOGLOBIN CONCENTRATION [1]: 38.98 G/DL
MEAN CORPUSCULAR VOLUME [1]: 62.07 fL
MONOCYTE [1]: 0.5%
NEUTROPHIL [1]: 5.83%
PLATELET COUNT [1]: 1193.33 x10E3/uL
ALANINE AMINOTRANSFERASE (72 h, time 3 day, […]): 97.67 u/L
ALBUMIN (72 h, time 3 day, […]): 4.07 G/DL
ALKALINE PHOSPHATASE (72 h, time 3 day, […]): 607.67 u/L
ASPARTATE AMINOTRANSFERASE (72 h, time 3 day, […]): 101 u/L
BLOOD UREA NITROGEN (72 h, time 3 day, […]): 13.33 mg/dL
CARBON DIOXIDE (72 h, time 3 day, […]): 36 mmol/L
CHLORIDE (72 h, time 3 day, […]): 99.67 MEQ/L
CHOLESTEROL (72 h, time 3 day, […]): 75.67 mg/dL
CREATINE PHOSPHOKINASE (72 h, time 3 day, […]): 279.67 u/L
CREATININE (72 h, time 3 day, […]): 0.16 mg/dL
GLUCOSE (72 h, time 3 day, […]): 164 mg/dL
LACTATE DEHYDROGENASE (72 h, time 3 day, […]): 115 u/L
LIPASE (72 h, time 3 day, […]): 12.67 u/L
PHOSPHORUS (72 h, time 3 day, […]): 8.77 mg/dL
POTASSIUM (72 h, time 3 day, […]): 5.79 MEQ/L
SODIUM (72 h, time 3 day, […]): 142.83 MEQ/L
TOTAL BILIRUBIN (72 h, time 3 day, […]): 0.27 mg/dL
TOTAL PROTEIN (72 h, time 3 day, […]): 5.8 G/DL
URIC ACID (72 h, time 3 day, […]): 0.67 mg/dL
ALANINE AMINOTRANSFERASE [1]: 60.33 u/L
ALBUMIN [1]: 4 G/DL
ALKALINE PHOSPHATASE [1]: 334.83 u/L
ASPARTATE AMINOTRANSFERASE [1]: 74.5 u/L
BLOOD UREA NITROGEN [1]: 13.5 mg/dL
CARBON DIOXIDE [1]: 30.33 mmol/L
CHLORIDE [1]: 98.33 MEQ/L
CHOLESTEROL [1]: 71.17 mg/dL
CREATINE PHOSPHOKINASE [1]: 212 u/L
CREATININE [1]: 0.21 mg/dL
GLUCOSE [1]: 173.17 mg/dL
LACTATE DEHYDROGENASE [1]: 101.5 u/L
LIPASE [1]: 24.17 u/L
PHOSPHORUS [1]: 10.87 mg/dL
POTASSIUM [1]: 6.06 MEQ/L
SODIUM [1]: 140.58 MEQ/L
TOTAL BILIRUBIN [1]: 0.17 mg/dL
TOTAL PROTEIN [1]: 5.9 G/DL
URIC ACID [1]: 1.23 mg/dL
ABSOLUTE BASOPHIL (120 h, time 5 day, […]): 0 CELLS/uL
ABSOLUTE EOSINOPHIL (120 h, time 5 day, […]): 0 CELLS/uL
ABSOLUTE LYMPHOCYTE (120 h, time 5 day, […]): 4426.33 CELLS/uL
ABSOLUTE MONOCYTE (120 h, time 5 day, […]): 102.67 CELLS/uL
ABSOLUTE SEGMENTED NEUTROPHIL (120 h, time 5 day, […]): 337.67 CELLS/uL
BASOPHIL (120 h, time 5 day, […]): 0%
EOSINOPHIL (120 h, time 5 day, […]): 0%
ERYTHROCYTE COUNT (120 h, time 5 day, […]): 5.31 x10E6/uL
HEMATOCRIT (120 h, time 5 day, […]): 32.5%
HEMOGLOBIN (120 h, time 5 day, […]): 13.17 G/DL
LEUKOCYTE COUNT (120 h, time 5 day, […]): 4.87 x10E3/uL
LYMPHOCYTE (120 h, time 5 day, […]): 90.33%
MEAN CORPUSCULAR HEMOGLOBIN (120 h, time 5 day, […]): 24.93 pg
MEAN CORPUSCULAR HEMOGLOBIN CONCENTRATION (120 h, time 5 day, […]): 40.67 G/DL
MEAN CORPUSCULAR VOLUME (120 h, time 5 day, […]): 61.33 fL
MONOCYTE (120 h, time 5 day, […]): 2.33%
NEUTROPHIL (120 h, time 5 day, […]): 7.33%
NUCLEATED RED BLOOD CELLS (120 h, time 5 day, […]): 0.33 /100WBC
PLATELET COUNT (120 h, time 5 day, […]): 848.33 x10E3/uL
ABSOLUTE EOSINOPHIL (120 h, time 5 day, vehicle 100 % WATER): 34.5 CELLS/uL
